Consider 15 compounds from EP0106486A2, “Improvements in or relating to novel octahydrobenz(f)isoquinolines” (ELI LILLY AND COMPANY, priority 1982, dated 1984).

For the test, the system named is Cox standard strain albino male mice. Nature of the test: mouse writhing assay (acetic acid-induced writhing). The note with it: dose required to inhibit induced writhing by fifty percent, 5 mice per group. The test is classed as in vivo. The source says:
The analgesic activity of a number of compounds provided by this invention has been determined in the standard rat-tail jerk assay and the mouse writhing assay. Writhing, characterized by contraction of the abdominal musculature, extension of the hind- legs, and rotation of the trunk, was induced in Cox standard strain albino male mice. The mice, weighing 18-24 grams, were fasted overnight and given the test compound by gavage in an acacia suspension (5%) sixty minutes before writhing was induced by the intraperitoneal administration of acetic acid (0.60 percent). Each treatment group consisted of 5 mice. The total number of writhes for the treatment group was determined during a 10-minute observation starting 5 minutes after acetic acid administration. […] The results in the mouse writhing assay are presented as the effective dose in mg./kg. of the tested compound required to inhibit induced writhing in the test animals by fifty percent (ED50). Results are presented in Column II for both subcutaneous (s.c.) and oral (p.o.) administration of the test compound as compared to the reference compound meperidine.
For orientation: An intraperitoneal irritant provokes the stretching counted in writhing tests.

[1] abbreviates: 1 h, oral (p.o.) administration, acacia suspension (5%), sixty minutes before i.p. acetic acid (0.60 percent), read-out: Mouse Writhing ED50 p.o.
Setting [2] is: sc, subcutaneous (s.c.) administration, writhing induced by i.p. acetic acid (0.60 percent), read-out: Mouse Writhing ED50 s.c.

The structures appear in SMILES notation. Structures can show the parent of a compound that is named as a salt. Where two headings read alike, the source gives them in different places.

In general, ED50 refers to the dose at which the effect has come halfway, by size or by number of responders.

Turning to `C=CCN1CC[C@]2(C)c3cc(O)ccc3CC[C@@H]2C1` (relative stereo) [Example 8, cis-1,2,3,4,4a,5,6,10b-octahydro-3-(2-propenyl)-10b-methylbenz[f]isoquinolin-9-ol], the median effective dose (ED50) under setting [1] is > 80 mg/kg and the ED50 under setting [2] worked out at 15 mg/kg.

Regarding `CCC[C@]12CCNC[C@H]1CCc1ccc(O)cc12` (relative stereo) [Example 11, cis-1,2,3,4,4a,5,6,10b-octahydro-10b-propylbenz[f]isoquinolin-9-ol], the ED50 under setting [1] was > 80 mg/kg and the ED50 under setting [2] was 62 mg/kg.

As to `CCOC(=O)C1(c2ccccc2)CCN(C)CC1` [Meperidine, reference compound], the ED50 under setting [1] worked out at 21 mg/kg and the median effective dose (ED50) under setting [2] was determined as 2.8 mg/kg.

As to `CCC[C@@]12CCN(C)C[C@@H]1CCc1ccc(O)cc12` [Example 4, cis-1,2,3,4,4a,5,6,1Ob-octahydro-3-methyl-10b-propylbenz[f]isoquinolin-9-ol hydrochloride], the 50% effective dose (ED50) was 13 mg/kg under setting [1] and 4.5 mg/kg under setting [2].

Take `C[C@]12CCN(CC3CC3)C[C@H]1CCc1ccc(O)cc12` (relative stereo) [Example 9, cis-1,2,3,4,4a,5,6,10b-octahydro-3-(cyclopropylmethyl)-10b-methylbenz[f]isoquinolin-9-ol]: the ED50 under setting [1] was > 80 mg/kg and the median effective dose (ED50) under setting [2] was found to be 32 mg/kg.

For the compound `CN1CC[C@]2(C)c3cc(O)ccc3CC[C@@H]2C1` (relative stereo) [Example 3, cis-1,2,3,4,4a,5,6,10b-octahydro-3,10b-di-methylbenz[f]isoquinolin-9-ol], the median effective dose (ED50) is, setting by setting: under setting [1], 7.2 mg/kg; under setting [2], 2.3 mg/kg.

With `CCC[C@]12CCN(C)C[C@H]1CCc1ccc(OC)cc12.Cl` (relative stereo) [Example 2, cis-1,2,3,4,4a,5,6,10b-octahydro-3-methyl-9-methoxy-10b-propylbenz[f]isoquinoline hydrochloride], the 50% effective dose (ED50) is, setting by setting: under setting [1], 11 mg/kg; under setting [2], 10 mg/kg.

Regarding `COc1ccc2c(c1)[C@]1(C)CCNC[C@@H]1CC2` [Example 5, cis-1,2,3,4,4a,5,6,10b-octahydro-9-methoxy-LOb-methylbenz[f]isoquinoline hydrochloride], the 50% effective dose (ED50) stood at 80 mg/kg under setting [1] and 62 mg/kg under setting [2].

As to `COc1ccc2c(c1)[C@]1(C)CCN(C)C[C@@H]1CC2` [Example 1, cis-1,2,3,4,4a,5,6,lOb-octahydro-3,lOb-dimethyl-9-methoxybenz[f]isoquinoline hydrochloride], the ED50 is, setting by setting: under setting [1], 15 mg/kg; under setting [2], 10 mg/kg.

With `CCC[C@]12CCNC[C@H]1CCc1ccc(OC)cc12.Cl` (relative stereo) [Example 6, cis-1,2,3,4,4a,5,6,10b-octahydro-9-methoxy-10b-propylbenz[f]isoquinoline hydrochloride], the 50% effective dose (ED50) runs as follows: under setting [1], > 80 mg/kg; under setting [2], > 80 mg/kg.

Turning to `C[C@@]12CCNC[C@@H]1CCc1ccc(O)cc12` [Example 7, cis-l,2,3,4,4a,5,6,10b-octahydro-10b-methylbenz[f]isoquinolin-9-ol], the ED50 under setting [1] was > 80 mg/kg and the ED50 under setting [2] is 80 mg/kg.

As to `C=CCN1CC[C@]2(CCC)c3cc(O)ccc3CC[C@@H]2C1` (relative stereo) [Example 12, cis-1,2,3,4,4a,5,6,10b-octahydro-3-(2-propenyl)-10b-propylbenz[f]isoquinolin-9-ol], the ED50 by setting is: under setting [1], 45 mg/kg; under setting [2], 12 mg/kg.

As for `CCC[C@]12CCN(CC3CC3)C[C@H]1CCc1ccc(O)cc12` (relative stereo) [Example 13, cis-1,2,3,4,4a,5,6,10b-octahydro-3-cyclopropylmethyl-10b-propylbenz[f]isoquinolin-9-ol], the ED50 under setting [1] worked out at 73 mg/kg and the median effective dose (ED50) under setting [2] was found to be 34 mg/kg.

For `C[C@@]12CCN(CCc3ccccc3)C[C@@H]1CCc1ccc(O)cc12` (relative stereo) [Example 10, cis-1,2,3,4,4a,5,6,10b-octahydro-3-(2-phenylethyl)-10b-methylbenz[f]isoquinolin-9-ol], the ED50 came out at 38.2 mg/kg under setting [1] and 5.2 mg/kg under setting [2].

`CCC[C@]12CCN(CCc3ccccc3)C[C@H]1CCc1ccc(O)cc12` (relative stereo) [Example 14, cis-1,2,3,4,4a,5,6,10b-octahydro-3-(2-phenylethyl)-10b-propylbenz[f]isoquinolin-9-ol]: the ED50 is > 80 mg/kg under setting [1] and 78 mg/kg under setting [2].
